The record followed here is US20070282012A1 (priority 2004, published 2007).

For series [1], the system named is subjects regularly wearing SCL. The arrangement: species or system human. Conditions: in vivo.
The subject of series [2] is normal subjects. The arrangement: species or system human. The note with it: in vivo.
For series [3], the system named is tear deficient dry eyes. The arrangement: species or system human. Conditions: in vivo.
In series [4] the test system is normal subjects. The arrangement: species or system human. Conditions: in vivo. The source holds these as a separate data set.
Series [5] has as its system subjects regularly wearing SCL. The arrangement: species or system human. The note with it: in vivo. This is another data set of the same source.
Series [6] has as its system normal subjects. The arrangement: species or system human. The note with it: in vivo. The source holds these as a separate data set.
The test system of series [7] is subjects regularly wearing SCL. The arrangement: species or system human. The note with it: in vivo. This is another data set of the same source.
In series [8] the test system is patients with tear deficient dry eye. The note with it: human, in vivo.
In series [9] the test system is normal subjects. Conditions: in vivo.
Series [10] has as its system patients with tear deficient dry eye. The note with it: in vivo.
Series [11] deals with tear deficient dry eyes. The arrangement: species or system human. Conditions: in vivo. This is another data set of the same source.
Series [12] relates to patients with tear deficient dry eye. Conditions: human, in vivo. The source holds these as a separate data set.

Values joined by “and” are separate entries in the source; they are usually repeats but may differ in a detail not shown here. Equal entries are not always repeated.

As for “Thiopropanal S-Oxide [lacrimatory component]”, the “grades of specular image of the tears on SCL” value in series [1] was 1.4±0.5. Further, in the series with normal subjects [2], the “lacrimation in the contralateral non-exposed eye” value was “lacrimation is induced in the contralateral non-exposed eye”, the “time after exposure by which ΔR reached the maximum” value was at most 1 min, the “ΔR (2 minutes)” value is 0.25±0.14 mm and the “ΔR (10 minutes)” value is about 0 mm. Moreover, the “ΔR in the contralateral non-exposed eye” value in the series with normal subjects [2] is 0.30 mm. In addition, the “radius of tear meniscus curvature R, mean value±standard deviation” value in the series on tear deficient dry eyes [3] is listed as 0.34±0.20 mm. For the same substance, in the series with normal subjects [4], the degree of stimulation is given as 0; the “mean degree of the stimulation, four-level category rating” value is 3 and 1.5; the “mean time taken for the stimulation to be felt (ST)” value is 9.8 s and 14.5 s and 13.3 s; the “time taken for stimulation to be felt (ST), mean value±standard deviation” value came out at 9.8 ± 1.5 s. For the same substance, in series [5], the NIBUT came out at 9.1 ± 2.1 s. Besides, the “reflex lacrimation by nasal exposure” value with normal subjects [6] is given as “no reflex lacrimation is induced”. Moreover, the “R (radius of tear meniscus curvature), mean value±standard deviation” value in [7] came to 0.54±0.14 mm. For the same substance, in series [8], the “time after exposure at which ΔR was maximum” value came out at 2 min and the “ΔR (5 minutes)” value is given as about 0 mm. Moreover, the “adverse or lingering effects of the exposure on the ocular surface” value in the series on normal subjects [9] is “not found”. The “effects on the ocular surface epithelium” value in [10] is listed as “No effects on the ocular surface epithelium was observed”. For the same substance, the “extensibility of the tear lipid layer, Grade, mean value±standard deviation” value with tear deficient dry eyes [11] turned out to be 1.5±0.6. In series [12], the “degree of the stimulation, four-level category rating” value was “zero”; the “mean degree of the stimulation, four-level category rating” value is 1.8 and 1.7; the “time taken for stimulation to be felt (ST), mean value±standard deviation” value was 18.8 ± 9.3 s and 21.4 ± 9.8 s.
